According to patent publication US7951399B2, “Process for activation of drugs in a vibrational mill” (Eurand Pharmaceuticals Ltd., priority 2001, dated 2011):
Converted amounts (≈) assume the structure as drawn.

Test: physchem

## CC(C)Cc1ccc(C(C)C(=O)O)cc1 (stereo not shown) [Ibuprofen]
  solubility: 73 µg/mL (≈ 354 µM)
